The target in this experiment is human full length His-tagged BTK (Homo sapiens (Human), UniProt Q06187). Briefly: BTK Lanthscreen Eu Kinase Binding assay. The following applies: TR-FRET tracer displacement, 2 nM BTK, 30 min pre-incubation. Here is the method: BTK Lanthscreen® Eu Kinase Binding assay:
A Lanthscreen® Eu Kinase Binding assay (Life Technologies) was performed to quantitate the ability of test compounds to bind to BTK. The assay is based on the binding and displacement of Alexa Fluor647-labeled Kinase Tracer #236 to the ATP-binding site of human full length His-tagged BTK (Life Technologies cat # PV3587) with TR-FRET detection using a europium-labeled anti-His antibody. The assay was assembled in 384-well low volume NBS black plates (Corning) where 2 nM BTK and test compound in DMSO at varying concentrations were pre-incubated for 30 min at 28° C. in assay buffer consisting of 50 mM HEPES, pH 7.4, 10 mM MgCl2, 1 mM EGTA. 100 μM Na3VO4 and 0.01% Brij 35. Then, 2 nM of Eu-anti His antibody and 30 nM Kinase Tracer were added and incubated for […] at 28° C. Following incubation, TR-FRET signal was read on an Envision plate reader (Excitation: 340 nm; Emissions: 615 and 665 nm). The 665: 615 nm emission ratio was calculated and converted to POC compared to control and blank wells.
Background: TR-FRET usually uses a lanthanide donor and a delayed reading to cut background.

pIC50: −log10 of the molar value.

Sequence of human full length His-tagged BTK (Q06187 whole entry): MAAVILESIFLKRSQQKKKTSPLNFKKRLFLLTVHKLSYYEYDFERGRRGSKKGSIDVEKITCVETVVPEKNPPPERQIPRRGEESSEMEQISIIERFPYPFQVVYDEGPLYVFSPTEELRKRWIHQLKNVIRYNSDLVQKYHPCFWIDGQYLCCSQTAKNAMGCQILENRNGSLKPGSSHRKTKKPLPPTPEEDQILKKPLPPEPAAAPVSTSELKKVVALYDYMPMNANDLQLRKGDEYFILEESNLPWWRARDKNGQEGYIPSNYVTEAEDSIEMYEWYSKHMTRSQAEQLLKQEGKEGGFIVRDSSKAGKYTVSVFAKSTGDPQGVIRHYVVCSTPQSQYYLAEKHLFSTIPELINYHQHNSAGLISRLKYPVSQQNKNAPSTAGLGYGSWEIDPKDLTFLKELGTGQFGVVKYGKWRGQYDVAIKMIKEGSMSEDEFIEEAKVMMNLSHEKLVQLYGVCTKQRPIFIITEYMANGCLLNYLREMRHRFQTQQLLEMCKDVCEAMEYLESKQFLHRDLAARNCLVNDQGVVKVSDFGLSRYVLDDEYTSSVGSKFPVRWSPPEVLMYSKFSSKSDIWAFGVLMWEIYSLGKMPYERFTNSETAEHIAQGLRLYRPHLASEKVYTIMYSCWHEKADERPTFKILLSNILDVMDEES

In the case of `Cn1cc(-c2cccc(-n3c(C4CCN(C#N)C4)cc4cc(C5CC5)ccc4c3=O)c2CO)cc(N)c1=O` (centres unmarked) [Example 31], the negative logarithm of the IC50 (pIC50) (usually the IC50 on a negative log10 scale, so that one unit is a factor of ten) is 6.32.
`C=CC(=O)N1CC(Cc2cc3cc(C4CC4)ccc3c(=O)n2-c2cccc(-c3ccc4cncn4c3)c2CO)C1` [Example 27]: the pIC50 is 6.51.
In turn, `C=CC(=O)N1CC(c2cc3cc(C4CC4)ccc3c(=O)n2-c2cccc(-c3cc(C(N)=O)n(C)c3)c2CO)C1` (single isomer, unassigned) [Example 42] showed a pIC50 of 6.25.
With `C=CC(=O)N1CC(Cc2cc3cc(C4CC4)ccc3c(=O)n2-c2cccc(-c3ccnc(NC)c3)c2CO)C1` [Example 33], the negative-log IC50 (pIC50) is 6.29.
In turn, `Cn1cc(-c2cccc(-n3c(C4CN(C#N)C4)cc4cc(C5CC5)ccc4c3=O)c2CO)cc(N)c1=O` [Example 9] had a pIC50 of 8.59.
`CC#CC(=O)N1CC(c2cc3cc(C4CC4)ccc3c(=O)n2-c2cccc(-c3ccc4[nH]ncc4c3)c2CO)C1` [Example 30]: the pIC50 is 6.35.
In turn, `N#CN1CC(c2cc3cc(C4CC4)ccc3c(=O)n2-c2cccc(-c3ccc4[nH]ncc4c3)c2CO)C1` [Example 3] had a negative-log IC50 (pIC50) of 8.72.
Molecule `CN(C#N)Cc1cc2cc(C3CC3)ccc2c(=O)n1-c1cccc(-c2cc(N)c(=O)n(C)c2)c1CO` [Example 32] showed a pIC50 of 6.31.
As to `C=CC(=O)N1CCC(c2cc3cc(C4CC4)ccc3c(=O)n2-c2cccc(-c3ccnc(N)c3F)c2CO)C1` (centres unmarked) [Example 37], the pIC50 is 6.21.
Then `C/C=C/C(=O)N1CC(c2cc3cc(C4CC4)ccc3c(=O)n2-c2cccc(-c3ccnc(NC)c3)c2CO)C1` [Example 29], with 6.36.
For `C=CC(=O)N1CC(Cc2cc3cc(C4CC4)cc(OC)c3c(=O)n2-c2cccc(-c3cc(C(N)=O)n(C)c3)c2CO)C1` [Example 38], the pIC50 is 6.60.
Then `CC#CC(=O)N1CC(c2cc3cc(C4CC4)ccc3c(=O)n2-c2cccc(-c3cc(N)c(=O)n(C)c3)c2CO)C1` [Example 28], with 6.51; and `C=CC(=O)N1CC(Cc2cc3cc(C4CC4)cc(F)c3c(=O)n2-c2cccc(-c3cc(C(N)=O)n(C)c3)c2CO)C1` [Example 41], with 9.15.
`C/C=C/C(=O)N1CC(c2cc3cc(C4CC4)ccc3c(=O)n2-c2cccc(-c3cc(C(N)=O)n(C)c3)c2CO)C1` [Example 26]: the pIC50 is 6.64.
`C=CC(=O)N1CCC(c2cc3cc(C4CC4)ccc3c(=O)n2-c2cccc(-c3ccncc3)c2CO)C1` (centres unmarked) [Example 22] had a pIC50 of 7.43.
For `C=CC(=O)N(C)Cc1cc2cc(C3CC3)ccc2c(=O)n1-c1cccc(-c2ccnc(N)c2)c1CO` [Example 23] the value was 6.92.
Molecule `C=CC(=O)N1CCC(c2cc3cc(C4CC4)ccc3c(=O)n2-c2cccc(-c3ccn4cncc4c3)c2CO)C1` (centres unmarked) [Example 25] had a pIC50 of 6.80.
As for `C=CC(=O)N(C)Cc1cc2cc(C3CC3)ccc2c(=O)n1-c1cccc(-c2cc(N)c(=O)n(C)c2)c1CO` [Example 24], the pIC50 was 6.85.
Turning to `CC#CC(=O)N1CC(c2cc3cc(C4CC4)ccc3c(=O)n2-c2cccc(-c3cc(C(N)=O)n(C)c3)c2CO)C1` [Example 19], the pIC50 is 7.19.
Then `CC#CC(=O)N(C)Cc1cc2cc(C3CC3)ccc2c(=O)n1-c1cccc(-c2cc(C(N)=O)n(C)c2)c1CO` [Example 34], with 6.28; and `CC#CC(=O)N1CC(c2cc3cc(C4CC4)ccc3c(=O)n2-c2cccc(-c3ccnc(NC)c3)c2CO)C1` [Example 35], with 6.28.
`C=CC(=O)N(C)Cc1cc2cc(C3CC3)ccc2c(=O)n1-c1cccc(-c2cccc(C(N)=O)c2)c1CO` [Example 36] showed a negative-log IC50 (pIC50) of 6.24.
`N#CN1CC(c2cc3cc(C4CC4)ccc3c(=O)n2-c2cccc(-c3cccc(C(N)=O)c3)c2CO)C1` [Example 4] showed a pIC50 of 8.30.

These data come from patent US10570118B2, “Isoquinolones as BTK inhibitors” (Boehringer Ingelheim International GmbH, priority 2016, dated 2020).
